Drawing on patent publication US6133275A, “3-phenylpyrrolidine alpha-1 adrenergic compounds” (Abbott Laboratories, priority 1998, dated 2000), this text covers Ki for nine compounds.

Structures can show the parent of a compound that is named as a salt.

Assay [1] deals with T1, α1b (Hamster) (Mesocricetus auratus, UniProt P18841).
T1 sequence (P18841 1-515): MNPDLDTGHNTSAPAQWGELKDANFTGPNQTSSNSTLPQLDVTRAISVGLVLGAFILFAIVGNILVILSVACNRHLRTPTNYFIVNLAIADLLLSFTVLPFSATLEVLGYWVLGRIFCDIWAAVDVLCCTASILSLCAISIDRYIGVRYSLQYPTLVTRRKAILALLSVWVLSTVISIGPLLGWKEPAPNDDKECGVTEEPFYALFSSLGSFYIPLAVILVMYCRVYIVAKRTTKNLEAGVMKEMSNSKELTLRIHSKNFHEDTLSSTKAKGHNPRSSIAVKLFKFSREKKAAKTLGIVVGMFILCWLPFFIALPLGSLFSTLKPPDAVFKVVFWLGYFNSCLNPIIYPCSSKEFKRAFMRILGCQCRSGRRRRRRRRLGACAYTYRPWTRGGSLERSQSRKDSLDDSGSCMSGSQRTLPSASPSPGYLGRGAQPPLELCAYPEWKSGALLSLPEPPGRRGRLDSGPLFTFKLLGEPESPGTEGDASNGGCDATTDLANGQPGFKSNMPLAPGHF
Put plainly: Radioligand binding, displacement of [3H]-prazosin from cloned α1b (hamster) expressed in LTK cells. Conditions: [3H]-prazosin 0.2 nM; cloned hamster α1b in LTK cell membranes; 25° C., 50 minutes.

The target in assay [2] is T2, α1d (rat) (Rattus norvegicus, UniProt P23944).
T2 sequence (P23944 1-561): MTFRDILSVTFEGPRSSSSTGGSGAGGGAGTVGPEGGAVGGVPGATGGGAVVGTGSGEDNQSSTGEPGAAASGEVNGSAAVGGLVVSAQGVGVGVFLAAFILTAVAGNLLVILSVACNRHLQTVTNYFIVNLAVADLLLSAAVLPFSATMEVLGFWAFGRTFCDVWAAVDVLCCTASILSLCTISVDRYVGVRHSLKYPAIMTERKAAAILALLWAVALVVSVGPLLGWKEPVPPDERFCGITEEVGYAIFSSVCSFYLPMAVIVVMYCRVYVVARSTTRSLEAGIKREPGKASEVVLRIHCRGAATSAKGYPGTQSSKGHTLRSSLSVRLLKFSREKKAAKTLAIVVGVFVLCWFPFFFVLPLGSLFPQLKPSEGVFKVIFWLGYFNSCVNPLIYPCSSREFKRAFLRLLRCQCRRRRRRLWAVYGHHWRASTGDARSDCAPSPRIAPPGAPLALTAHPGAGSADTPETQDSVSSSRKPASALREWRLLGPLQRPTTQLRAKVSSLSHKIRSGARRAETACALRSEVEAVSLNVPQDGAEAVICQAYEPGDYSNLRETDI
Put plainly: Radioligand binding, displacement of [3H]-prazosin from cloned α1d (rat) expressed in LTK cells. Conditions: [3H]-prazosin 0.2 nM; cloned rat α1d in LTK cell membranes; 25° C., 50 minutes.

Assay [3] has as its target T3, α1a (Rat) (Rattus norvegicus, UniProt P43140).
T3 sequence (P43140 1-466): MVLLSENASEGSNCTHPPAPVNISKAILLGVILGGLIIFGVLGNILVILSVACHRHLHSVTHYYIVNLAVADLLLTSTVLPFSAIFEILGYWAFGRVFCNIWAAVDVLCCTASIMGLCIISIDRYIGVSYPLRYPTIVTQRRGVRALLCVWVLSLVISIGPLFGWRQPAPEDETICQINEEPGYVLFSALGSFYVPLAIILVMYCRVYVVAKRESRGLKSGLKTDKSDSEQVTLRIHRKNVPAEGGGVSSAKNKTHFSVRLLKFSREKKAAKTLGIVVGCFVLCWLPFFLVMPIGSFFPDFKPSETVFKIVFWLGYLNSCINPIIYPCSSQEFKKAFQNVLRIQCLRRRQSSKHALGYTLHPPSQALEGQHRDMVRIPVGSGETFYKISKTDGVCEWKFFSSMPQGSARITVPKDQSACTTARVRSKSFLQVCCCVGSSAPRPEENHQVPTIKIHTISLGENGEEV
Put plainly: Radioligand binding, displacement of [3H]-prazosin from cloned α1a (rat) expressed in LTK cells. Conditions: [3H]-prazosin 0.2 nM; cloned rat α1a in LTK cell membranes; 25° C., 50 minutes.

The target in assay [4] is T4, α1a (Bovine) (Bos taurus, UniProt P18130).
T4 sequence (P18130 1-466): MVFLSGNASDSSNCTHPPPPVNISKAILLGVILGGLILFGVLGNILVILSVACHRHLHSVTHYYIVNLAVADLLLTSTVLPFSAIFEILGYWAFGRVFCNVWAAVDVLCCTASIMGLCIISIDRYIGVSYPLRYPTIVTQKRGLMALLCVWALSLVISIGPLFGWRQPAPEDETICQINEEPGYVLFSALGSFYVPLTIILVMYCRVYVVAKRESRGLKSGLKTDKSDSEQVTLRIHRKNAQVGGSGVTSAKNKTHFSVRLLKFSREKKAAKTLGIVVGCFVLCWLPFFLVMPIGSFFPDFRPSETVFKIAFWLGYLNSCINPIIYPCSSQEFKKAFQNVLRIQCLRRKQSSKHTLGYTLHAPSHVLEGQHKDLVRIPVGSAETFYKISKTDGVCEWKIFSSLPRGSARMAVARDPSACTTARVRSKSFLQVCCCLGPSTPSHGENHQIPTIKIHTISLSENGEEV
Put plainly: Radioligand binding, displacement of [3H]-prazosin from cloned α1a (bovine) expressed in LTK cells. Conditions: [3H]-prazosin 0.2 nM; cloned bovine α1a in LTK cell membranes; 25° C., 50 minutes.

On to `COc1ccccc1[C@H]1CCN(CCn2c(=O)[nH]c3c(sc4cccnc43)c2=O)C1` [Example 4, (R)-3-[2-[3-(2-Methoxyphenyl)-1-pyrrolidinyl]ethyl]pyrido[2',3':4,5]thieno[3,2-d]pyrimidine-2,4(1H,3H)-dione bis(hydrochloride) Salt], for which the Ki was found to be 1.52 nM in assay [1], 2.38 nM in assay [2], 2.61 nM in assay [3] and 0.83 nM in assay [4].

Turning to `COc1ccccc1[C@@H]1CCN(CCCn2c(=O)[nH]c3c(sc4cccnc43)c2=O)C1` [Example 28, (S)-3-[3-[3-(2-methoxyphenyl)-1-pyrrolidinyl]propyl]pyrido[2',3':4,5]thieno[3,2-d]pyrimidine-2,4(1H,3H)-dione, Dihydrochloride], the Ki in assay [1] was 88.6 nM; in assay [2] it was 27.8 nM; in assay [3], 25.8 nM; in assay [4] it was 10.3 nM.

For `COc1ccccc1[C@H]1CCN(CCCCn2c(=O)[nH]c3c(sc4nccnc43)c2=O)C1` [Example 13, (R)-3-[4-[3-(2-Methoxyphenyl)-1-pyrrolidinyl]butyl]pyrazino[2',3':4,5]thieno[3,2-d]pyrimidine-2,4(1H,3H)-dione, Dihydrochloride], the Ki amounted to 2.99 nM in assay [1], 0.36 nM in assay [2], 0.21 nM in assay [3] and 0.07 nM in assay [4].

Take `COc1ccccc1[C@@H]1CCN(CCCCn2c(=O)[nH]c3c(sc4cccnc43)c2=O)C1` [Example 29, (S)-3-[4-[3-(2-methoxyphenyl)-1-pyrrolidinyl]butyl]pyrido[2',3':4,5]thieno[3,2-d]pyrimidine-2,4(1H,3H)-dione, Dihydrochloride]: the Ki in assay [1] was 4.02 nM; in assay [2], 2.02 nM; in assay [3], 1.98 nM; in assay [4], 0.69 nM.

On to `COc1cccc([C@H]2CCN(CCn3c(=O)[nH]c4c(sc5ccccc54)c3=O)C2)c1` [Example 3, (R)-3-[2-[3-(3-Methoxyphenyl)-1-pyrrolidinyl]ethyl]-[1]benzothieno[3,2-d]pyrimidine-2,4(1H,3H)-dione Monohydrochloride], for which the Ki was 59.7 nM in assay [1], 20 nM in assay [2], 34 nM in assay [3] and 5.95 nM in assay [4].

Regarding `COc1cnc2sc3c(=O)n(CCCCN4CC[C@H](c5ccccc5OC)C4)c(=O)[nH]c3c2n1` [Example 15, (R)-8-Methoxy-3-[4-[3-(2-methoxyphenyl)-1-pyrrolidinyl]butyl]pyrazino-[2',3':4,5]thieno[3,2-d]pyrimidine-2,4(1H,3H)-dione, Dihydrochloride], the Ki in assay [1] is 2.37 nM; in assay [2], 0.15 nM; in assay [3] it was 0.26 nM; in assay [4], 0.06 nM.

On to `COc1cccc([C@H]2CCN(CCCCn3c(=O)[nH]c4c(sc5ncccc54)c3=O)C2)c1` [Example 24, (R)-3-[4-[3-(3-methoxyphenyl)-1-pyrrolidinyl]butyl]pyrido[3',2':4,5]thieno[3,2-d]pyrimidine-2,4(1H,3H)-dione, Dihydrochloride], for which the Ki in assay [1] was determined as 20 nM; in assay [2], 5.19 nM; in assay [3], 7.37 nM; in assay [4] it was 2.81 nM.

Regarding `COc1ccc2sc3c(=O)n(CCCCN4CC[C@H](c5ccccc5OC)C4)c(=O)[nH]c3c2n1` [Example 11, (R)-8-methoxy-3-[4-[3-(2-methoxyphenyl)-1-pyrrolidinyl]butyl]pyrido-[2',3':4,5]thieno[3,2-d]pyrimidine-2,4(1H,3H)-dione, Dihydrochloride], the Ki was 1.79 nM in assay [1], 0.12 nM in assay [2], 0.67 nM in assay [3] and 0.11 nM in assay [4].

For the compound `COc1ccccc1[C@H]1CCN(CCn2c(=O)[nH]c3c(sc4ccccc43)c2=O)C1` [Example 1, (R)-3-[2-[3-(2-Methoxyphenyl)-1-pyrrolidinyl]ethyl]-[1]benzothieno[3,2-d]pyrimidine-2,4(1H,3H)-dione, Monohydrochloride], the Ki was 0.94 nM in assay [1], 0.82 nM in assay [2], 1.8 nM in assay [3] and 0.13 nM in assay [4].
